According to US10821115B2, “Compounds that inhibit Mcl-1 protein” (priority 2017, dated 2020):
Like-named read-outs stand apart in the source and are kept apart here.

Tests used:
[1] = target: recombinant human Mcl-1 (residues 171-327) / Bim interaction (Homo sapiens (Human), UniProt Q07820); assay: biochemical; type: binding; details: TR-FRET, Mcl-1(171-327) / biotin-Bim (51-76); read-out: Mcl-1 HTRF IC50
[2] = system: human multiple myeloma cell line, OPM-2; assay: Cell viability assay (OPM-2 10 FBS), CellTiter-Glo; type: cell-based
In short: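 IC50 values come from 4-parameter logistic fits of luminescence signals reflecting cell viability. Treatment lasted 16 h at 37 °C in complete medium with 10% FBS, starting from 3000 cells/well.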

[3] = read-out: OPM-2 10% FBS IC50 IP, OPM-2 cells, 10% FBS, 16 h, CellTiter-Glo
[4] = Homo sapiens, OPM-2, 16 h, read-out: OPM-2 10% FBS IC50 IP, OPM-2 cells, 10% FBS, 16 h, CellTiter-Glo

Sequence of recombinant human Mcl-1 (residues 171-327) / Bim interaction (Q07820 171-327): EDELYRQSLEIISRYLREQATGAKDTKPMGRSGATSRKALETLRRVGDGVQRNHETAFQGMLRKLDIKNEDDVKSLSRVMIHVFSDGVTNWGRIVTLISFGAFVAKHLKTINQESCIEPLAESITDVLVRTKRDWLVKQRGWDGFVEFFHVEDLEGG

C[C@@H]1[C@@H](C)CCC[C@@](O)(CC(=O)N2CCC2)[C@@H]2CC[C@H]2CN2C[C@@]3(CCCc4cc(Cl)ccc43)COc3ccc(cc32)C(=O)NS1(=O)=O [Example 100145, (1S,3′R,6′R,7′R,11′S,12′R)-7′-(2-(1-azetidinyl)-2-oxoethyl)-6-chloro-7′-hydroxy-11′,12′-dimethyl-3,4-dihydro-2H,15′H-spiro[naphthalene-1,22′-[20]oxa[13]thia[1,14]diazatetracyclo [14.7.2.0~3,6~.0~19,24~]pentacosa[16,18,24]trien]-15′-one 13′,13′-dioxide]
IC50 [1]: 0.000357 µM
IC50 [2, 3]: 0.945 µM

C[C@@H]1[C@@H](C)CCC[C@@](O)(Cc2ncccn2)[C@@H]2CC[C@H]2CN2C[C@@]3(CCCc4cc(Cl)ccc43)COc3ccc(cc32)C(=O)NS1(=O)=O [Example 100146, (1S,3′R,6′R,7′R,11′S,12′R)-6-chloro-7′-hydroxy-11′,12′-dimethyl-7′-(2-pyrimidinylmethyl)-3,4-dihydro-2H,15′H-spiro[naphthalene-1,22′-[20]oxa[13]thia[1,14]diazatetracyclo [14.7.2.0~3,6~.0~19,24~]pentacosa[16,18,24]trien]-15′-one 13′,13′-dioxide]
IC50 [1]: 0.000515 µM
IC50 [2, 4]: 0.347 µM

C[C@@H]1[C@@H](C)CCC[C@]2(CC(N3CCCC3)=NO2)[C@@H]2CC[C@H]2CN2C[C@@]3(CCCc4cc(Cl)ccc43)COc3ccc(cc32)C(=O)NS1(=O)=O [Example 100147, (1S,3′R,6′R,7′S,11′S,12′R)-6-chloro-11′,12′-dimethyl-3″-(1-pyrrolidinyl)-3,4-dihydro-2H,4″H,15′H-dispiro[naphthalene-1,22′-[20]oxa[13]thia[1,14]diazatetracyclo [14.7.2.0~3,6~.0~19,24~]pentacosa[16,18,24]triene-7′,5″-[1,2]oxazol]-15′-one 13′,13′-dioxide]
IC50 [1]: 0.000305 µM
IC50 [2, 4]: 0.666 µM

C[C@@H]1[C@@H](C)C/C=C/[C@@](O)(CCCO)[C@@H]2CC[C@H]2CN2C[C@@]3(CCCc4cc(Cl)ccc43)COc3ccc(cc32)C(=O)NS1(=O)=O [Example 100148, (1S,3′R,6′R,7′S,8′E,11′S,12′R)-6-chloro-7′-hydroxy-7′-(3-hydroxypropyl)-11′,12′-dimethyl-3,4-dihydro-2H,15′H-spiro[naphthalene-1,22′-[20]oxa[13]thia[1,14]diazatetracyclo [14.7.2.0~3,6~.0~19,24~]pentacosa[8,16,18,24]tetraen]-15′-one 13′,13′-dioxide]
IC50 [1]: 0.000113 µM
IC50 [2, 3]: 0.239 µM

COC[C@@]1(O)CCC[C@H](C)[C@@H](C)S(=O)(=O)NC(=O)c2ccc3c(c2)N(C[C@@H]2CC[C@H]21)C[C@@]1(CCCc2cc(Cl)ccc21)CO3 [Example 100150, (1S,3′R,6′R,7′R,11′S,12′R)-6-chloro-7′-hydroxy-7′-(methoxymethyl)-11′,12′-dimethyl-3,4-dihydro-2H,15′H-spiro[naphthalene-1,22′-[20]oxa[13]thia[1,14]diazatetracyclo [14.7.2.0~3,6~.0~19,24~]pentacosa[16,18,24]trien]-15′-one 13′,13′-dioxide]
IC50 [1]: 0.00169 µM
IC50 [2, 4]: 1.43 µM

C[C@@H]1[C@@H](C)C/C=C/[C@@](O)(Cc2ccncn2)[C@@H]2CC[C@H]2CN2C[C@@]3(CCCc4cc(Cl)ccc43)COc3ccc(cc32)C(=O)NS1(=O)=O [Example 100151, (1S,3′R,6′R,7′S,8′E,11′S,12′R)-6-chloro-7′-hydroxy-11′,12′-dimethyl-7′-(4-pyrimidinylmethyl)-3,4-dihydro-2H,15′H-spiro[naphthalene-1,22′-[20]oxa[13]thia[1,14]diazatetracyclo [14.7.2.0~3,6~.0~19,24~]pentacosa[8,16,18,24]tetraen]-15′-one 13′,13′-dioxide]
IC50 [1]: 0.00012 µM
IC50 [2, 3]: 0.071 µM

C[C@@H]1[C@@H](C)C/C=C/[C@@](O)(Cc2ccncn2)[C@@H]2CC[C@H]2CN2C[C@@]3(CCCc4cc(Cl)ccc43)COc3ccc(cc32)C(=O)NS1(=O)=O [Example 100152, (1S,3′R,6′R,7′S,8′E,11′S,12′R)-6-chloro-7′-hydroxy-11′,12′-dimethyl-7′-(4-pyrimidinylmethyl)-3,4-dihydro-2H,15′H-spiro[naphthalene-1,22′-[20]oxa[13]thia[1,14]diazatetracyclo [14.7.2.0~3,6~.0~19,24~]pentacosa[8,16,18,24]tetraen]-15′-one 13′,13′-dioxide]
IC50 [1]: 0.000449 µM
IC50 [2, 3]: 0.377 µM

C[C@@H]1[C@@H](C)CCC[C@@](O)(CC(=O)N2CCOC2=O)[C@@H]2CC[C@H]2CN2C[C@@]3(CCCc4cc(Cl)ccc43)COc3ccc(cc32)C(=O)NS1(=O)=O [Example 100153, (1S,3′R,6′R,7′R,11′S,12′R)-6-chloro-7′-hydroxy-11′,12′-dimethyl-7′-(2-oxo-2-(2-oxo-1,3-oxazolidin-3-yl)ethyl)-3,4-dihydro-2H,15′H-spiro[naphthalene-1,22′-[20]oxa[13]thia[1,14]diazatetracyclo [14.7.2.0~3,6~.0~19,24~]pentacosa[16,18,24]trien]-15′-one 13′,13′-dioxide]
IC50 [1]: 0.000738 µM
IC50 [2, 3]: 4.66 µM

COCCN(C)C1=NO[C@@]2(CCC[C@H](C)[C@@H](C)S(=O)(=O)NC(=O)c3ccc4c(c3)N(C[C@@H]3CC[C@H]32)C[C@@]2(CCCc3cc(Cl)ccc32)CO4)C1 [Example 100155, (1S,3′R,6′R,7′S,11′S,12′R)-6-chloro-3″- ((2-methoxyethyl)(methyl)amino)-11′,12′-dimethyl-3,4-dihydro-2H,4″H,15′H-dispiro[naphthalene-1,22′-[20]oxa[13]thia[1,14]diazatetracyclo [14.7.2.0~3,6~.0~19,24~]pentacosa[16,18,24]triene-7′,5″-[1,2]oxazol]-15′-one 13′,13′-dioxide]
IC50 [1]: 0.000225 µM
IC50 [2, 4]: 0.332 µM

C[C@@H]1[C@@H](C)C/C=C/[C@](O)(CCCO)[C@@H]2CC[C@H]2CN2C[C@@]3(CCCc4cc(Cl)ccc43)COc3ccc(cc32)C(=O)NS1(=O)=O [Example 100156, (1S,3′R,6′R,7′R,8′E,11′S,12′R)-6-chloro-7′-hydroxy-7′-(3-hydroxypropyl)-11′,12′-dimethyl-3,4-dihydro-2H,15′H-spiro[naphthalene-1,22′-[20]oxa[13]thia[1,14]diazatetracyclo [14.7.2.0~3,6~.0~19,24~]pentacosa[8,16,18,24]tetraen]-15′-one 13′,13′-dioxide]
IC50 [1]: 0.00041 µM
IC50 [2, 4]: 0.568 µM

C=CCC[C@@]1(O)/C=C/C[C@H](C)[C@@H](C)S(=O)(=O)NC(=O)c2ccc3c(c2)N(C[C@@H]2CC[C@H]21)C[C@@]1(CCCc2cc(Cl)ccc21)CO3 [Example 100157, (1S,3′R,6′R,7′R,8′E,11′S,12′R)-7′-(3-buten-1-yl)-6-chloro-7′-hydroxy-11′,12′-dimethyl-3,4-dihydro-2H,15′H-spiro[naphthalene-1,22′-[20]oxa[13]thia[1,14]diazatetracyclo [14.7.2.0~3,6~.0~19,24~]pentacosa[8,16,18,24]tetraen]-15′-one 13′,13′-dioxide]
IC50 [1]: 0.00481 µM
IC50 [2, 3]: 3.21 µM

C=CCC[C@@]1(O)/C=C/C[C@H](C)[C@@H](C)S(=O)(=O)NC(=O)c2ccc3c(c2)N(C[C@@H]2CC[C@H]21)C[C@@]1(CCCc2cc(Cl)ccc21)CO3 [Example 100158, (1S,3′R,6′R,7′R,8′E,11′S,12′R)-7′-(3-buten-1-yl)-6-chloro-7′-hydroxy-11′,12′-dimethyl-3,4-dihydro-2H,15′H-spiro[naphthalene-1,22′-[20]oxa[13]thia[1,14]diazatetracyclo [14.7.2.0~3,6~.0~19,24~]pentacosa[8,16,18,24]tetraen]-15′-one 13′,13′-dioxide]
IC50 [1]: 0.000298 µM
IC50 [2, 3]: 0.26 µM

COCCC[C@]1(O)/C=C/C[C@H](C)[C@@H](C)S(=O)(=O)NC(=O)c2ccc3c(c2)N(C[C@@H]2CC[C@H]21)C[C@@]1(CCCc2cc(Cl)ccc21)CO3 [Example 100160, (1S,3′R,6′R,7′S,8′E,11′S,12′R)-6-chloro-7′-hydroxy-7′-(3-methoxypropyl)-11′,12′-dimethyl-3,4-dihydro-2H,15′H-spiro[naphthalene-1,22′-[20]oxa[13]thia[1,14]diazatetracyclo [14.7.2.0~3,6~.0~19,24~]pentacosa[8,16,18,24]tetraen]-15′-one 13′,13′-dioxide]
IC50 [1]: 0.000169 µM
IC50 [2, 4]: 0.078 µM

C[C@@H]1[C@@H](C)CCC[C@@](O)(Cc2nccn2C)[C@@H]2CC[C@H]2CN2C[C@@]3(CCCc4cc(Cl)ccc43)COc3ccc(cc32)C(=O)NS1(=O)=O [Example 100162, (1S,3′R,6′R,7′R,11′S,12′R)-6-chloro-7′-hydroxy-11′,12′-dimethyl-7′-((1-methyl-1H-imidazol-2-yl)methyl)-3,4-dihydro-2H,15′H-spiro[naphthalene-1,22′-[20]oxa[13]thia[1,14]diazatetracyclo [14.7.2.0~3,6~.0~19,24~]pentacosa[16,18,24]trien]-15′-one 13′,13′-dioxide]
IC50 [1]: 0.00347 µM
IC50 [2, 3]: 2.87 µM

C[C@@H]1[C@@H](C)CCC[C@@](O)(Cc2nccn2C)[C@@H]2CC[C@H]2CN2C[C@@]3(CCCc4cc(Cl)ccc43)COc3ccc(cc32)C(=O)NS1(=O)=O [Example 100163, (1S,3′R,6′R,7′R,11′S,12′R)-6-chloro-7′-hydroxy-11′,12′-dimethyl-7′-((1-methyl-1H-imidazol-2-yl)methyl)-3,4-dihydro-2H,15′H-spiro[naphthalene-1,22′-[20]oxa[13]thia[1,14]diazatetracyclo [14.7.2.0~3,6~.0~19,24~]pentacosa[16,18,24]trien]-15′-one 13′,13′-dioxide]
IC50 [1]: 0.00279 µM
IC50 [2, 3]: 1 µM
